Experimental data from PMC6196238, “Novobiocin, a Newly Found TRPV1 Inhibitor, Attenuates the Expression of TRPV1 in Rat Intestine and Intestinal Epithelial Cell Line IEC-6” (Frontiers in Pharmacology, 2018).
Each block holds one compound with its values, some of them ahead of it.

Tests used:
IEC-6/TRPV1- cells [1] = experiment: CAP accumulation assay; format: cell-based, rat; conditions: 2.5-10 μM NOVO, 10 μM RR, 0.1 μM SB-705498, Figure 3D
Method: The transfected cells were grown to 80% confluence in 12-well plates. The experiment was divided into three parts: […] SB-705498, RR or NOVO was then added to the medium for another 15, 30, and 60 min. […] After incubation, the medium was removed, and cell layers were washed three times with ice-cold PBS and then extracted with Membrane Protein Extraction Kit (Thermo Fisher Scientific Inc, Rockford, IL, United States), according to the manufacturer’s protocol. The cytosolic protein extracts were stored at -80°C until LC-MS/MS analysis. The plasma samples and protein sample with 100 μL were extracted with 400 μL of methanol involving IS (verapamil 50 ng⋅mL^-1) by vortex-mix for 1 min, ultrasonic extraction for 1 h, and then centrifugation for 30 min at 15000 g. The supernatant was transferred into a borosilicate glass and 2 μL was subjected to LC-MS/MS analysis. The LC-MS/MS system consisted of Agilent 6460 Triple Quadrupole LC/MS systems via an ESI interface. The samples were separated on an Agilent ZORBAX SB-C18 column (3.5 μm, 2.1 mm × 150 mm) and the column temperature was maintained at 30°C. The mobile phase consisted of acetonitrile and water contains 0.1% formic acid (70:30, v/v). The flow rate was 0.2 mL⋅min^-1. The ion source was an electrospray ionization interface in the positive mode. […] Other parameters were as follows: spray voltage, 4.0 kV; capillary temperature, 350°C; gas flow, 10 L⋅min^-1.

IEC-6/TRPV1+ cells [2] = experiment: LDH release assay (cell membrane integrity); conditions: for LDH release: IEC-6/TRPV1+; for LDH release compared with the control: NOVO 2.5, 5, 10 μM, CAP 25 μM, RR 10 μM, SB-705498 0.1 μM, 12 and 24 h
Method: (§4) The transfected cells were plated in 12-well plates. […] The cells were centrifuged at 1000 g for 5 min. Next, 50 μL of supernatants were aspirated and the rest of supernatants were discarded. The cells were washed twice with deionized water and then lysed by ultrasonic wave cracker. And then cell lysate and supernatants were analyzed by using LDH Release Assay Kit, according to the manufacturer’s instructions.

IEC-6/TRPV1- cells [3] = experiment: LDH release assay (cell membrane integrity)
Method: as §4

[4] = tested on: rat intestine (jejunum, ileum, colon); experiment: Ussing chamber intestinal permeability of CAP; format: in vitro ADME; conditions: CAP + 10 μM inhibitor; for fold-inhibition factor of CAP Papp: vs CAP only
Method: NOVO was also prepared in HEPES buffer to yield final concentration at 5, 10, 25, 50, 100, and 200 μM. […] Different portions of the rat intestine were excised and flushed with HEPES buffer, including jejunum (after the first 5 cm of the top of small intestine), ileum (the distal part of small intestine) and colon (proximal to cecal-colonic junction), and incubated in the ice-cold HEPES buffer. Next, 3–4 cm of the intestine was clipped, and the serosa was removed rapidly on an ice-cold glass. The intestinal segments were fixed in the Ussing chamber. Finally, 7 mL of HEPES buffer was added to the receiving side while an equal volume of drug solution to the dosing side. […] All the samples were kept at -20°C till HPLC analysis.
In brief, samples were injected into a C18 column (3.5 μm, 2.1 mm × 100 mm). An aliquot of 20 μL of sample solutions were injected.

[5] = tested on: rat intestine (jejunum, ileum, colon); experiment: Ussing chamber intestinal permeability of NOVO; format: in vitro ADME; conditions: NOVO in combination with 10 μM RR; Figure 1
Method: The intestinal permeability of CAP in vitro was performed using Ussing chamber. […] NOVO was also prepared in HEPES buffer to yield final concentration at 5, 10, 25, 50, 100, and 200 μM. Animal intestinal segments for the permeability study were prepared in accordance with the experimental method as described previously ([Yodoya et al., 1994]; [Wallon et al., 2005]; [Duan et al., 2013]). Briefly, male SD rats, weighting 240–260 g, were fasted for 18 h before each experiment and anesthetized by injecting 10 % chloral hydrate anesthesia (i.p.). Different portions of the rat intestine were excised and flushed with HEPES buffer, including jejunum (after the first 5 cm of the top of small intestine), ileum (the distal part of small intestine) and colon (proximal to cecal-colonic junction), and incubated in the ice-cold HEPES buffer. Next, 3–4 cm of the intestine was clipped, and the serosa was removed rapidly on an ice-cold glass. The intestinal segments were fixed in the Ussing chamber. Finally, 7 mL of HEPES buffer was added to the receiving side while an equal volume of drug solution to the dosing side. All the chambers were maintained at 37°C by using a warm water-circulating pump and a mixture of 95% O2 and 5% CO2 aerated to ensure the activity of the membrane. […]

IEC-6/TRPV1+ cells [6] = experiment: MTT cell viability assay; conditions: for Cell Survival: IEC-6/TRPV1+
Method: (§1) The rat intestinal epithelial cell line IEC-6, purchased from Kunming Institute of Zoology. CAS, was cultured in Dulbecco’s Modified Eagle’s Medium (DMEM) (Gibco, Grand Island, NY, United States) supplemented with 10% fetal bovine serum (FBS; Gibco) at 37°C in a humidified atmosphere of 5% CO2.
(§2) The plasmid pENTER containing the TRPV1 coding sequence NM_080704 was used as template in a PCR with the following primers: 5′-[…]-3′ (forward) and 5′-[…] (reverse). And synthetic small interfering RNA (siRNA) specific for rat TRPV1 (TRPV1-siRNA) was purchased from Vigene Bioscience (Rockville, MD, United States) with the following sequences: 5′-[…]-3′ (forward) and 5′-[…]-3′ (reverse) for TRPV1-siRNA. The transfecting process was conducted by using the lipofectamin® 3000 transfection reagent (Invitrogen^TM, Carlsbad, CA, United States), according to the manufacturer’s protocol.
(§3) The transfected cells were plated in 96-well plates. […] Optical density at 490 nm was used to evaluate cell viability in 96-well plates.

IEC-6/TRPV1- cells [7] = experiment: MTT cell viability assay
Method: as §1, §2, §3

in vivo = conditions: SD, rat, po, 10 mg
Method: Blood samples were collected into heparinized tubes before and at 30, 60, 120, 180, 210, 240, 270, 330, 390, and 720 min after administration. Blood samples were immediately centrifuged at 4000 g (4°C) for 10 min to obtain plasma. The plasma samples were stored at -80°C until LC-MS/MS analysis.
The plasma samples and protein sample with 100 μL were extracted with 400 μL of methanol involving IS (verapamil 50 ng⋅mL^-1) by vortex-mix for 1 min, ultrasonic extraction for 1 h, and then centrifugation for 30 min at 15000 g. The supernatant was transferred into a borosilicate glass and 2 μL was subjected to LC-MS/MS analysis.
The LC-MS/MS system consisted of Agilent 6460 Triple Quadrupole LC/MS systems via an ESI interface. The samples were separated on an Agilent ZORBAX SB-C18 column (3.5 μm, 2.1 mm × 150 mm) and the column temperature was maintained at 30°C. The mobile phase consisted of acetonitrile and water contains 0.1% formic acid (70:30, v/v). The flow rate was 0.2 mL⋅min^-1. The ion source was an electrospray ionization interface in the positive mode. […] Other parameters were as follows: spray voltage, 4.0 kV; capillary temperature, 350°C; gas flow, 10 L⋅min^-1.

LDH release (IEC-6/TRPV1+ cells [2]; 10 μM, 12 h): 0.406 ± 0.056 gprot⋅mL ^-1 | LDH release (IEC-6/TRPV1+ cells [2]; 10 μM, 24 h): 0.301 ± 0.061 gprot⋅mL ^-1 | LDH release compared with the control (IEC-6/TRPV1+ cells [2]): not any significant difference | LDH release (IEC-6/TRPV1- cells [3]; 10 μM, 12 h): 0.552 ± 0.039 gprot⋅mL ^-1 | LDH release (IEC-6/TRPV1- cells [3]; 10 μM, 24 h): 0.501 ± 0.094 gprot⋅mL ^-1 | Papp of CAP ([4]; colon): 12.18 ± 2.90 ×10^-6, cm⋅s^-1 | fold-inhibition factor of CAP Papp ([4]; colon): 1.64 fold | Papp of CAP ([4]; ileum): 5.06 ± 0.57 ×10^-6, cm⋅s^-1 | fold-inhibition factor of CAP Papp ([4]; ileum): 1.46 fold | Papp of CAP ([4]; jejunum): 2.54 ± 0.40 ×10^-6, cm⋅s^-1 | fold-inhibition factor of CAP Papp ([4]; jejunum): 1.23 fold | effect on permeability of NOVO across intestinal segments [5]: no change
SMILES: N.N.N.N.N.N.N.N.N.N.N.N.N.N.[Cl-].[Cl-].[Cl-].[Cl-].[Cl-].[Cl-].[O-2].[O-2].[Ru+3].[Ru+3].[Ru+4] [RR, ruthenium red]
accumulation of CAP, co-incubation (IEC-6/TRPV1- cells [1]): did not change

SMILES: COc1cc(CNC(=O)CCCC/C=C/C(C)C)ccc1O [CAP, capsaicin]
LDH release (IEC-6/TRPV1+ cells [2]; 25 μM, 12 h): 0.380 ± 0.165 gprot⋅mL ^-1 | LDH release (IEC-6/TRPV1+ cells [2]; 25 μM, 24 h): 0.311 ± 0.051 gprot⋅mL ^-1 | LDH release compared with the control (IEC-6/TRPV1+ cells [2]): not any significant difference | LDH release (IEC-6/TRPV1- cells [3]; 25 μM, 12 h): 0.680 ± 0.205 gprot⋅mL ^-1 | LDH release (IEC-6/TRPV1- cells [3]; 25 μM, 24 h): 0.462 ± 0.101 gprot⋅mL ^-1 | Cell Survival (IEC-6/TRPV1+ cells [6]; 12.5 μM, incubation 12 h): 1.029 ± 0.180 | Cell Survival (IEC-6/TRPV1+ cells [6]; 12.5 μM, incubation 24 h): 0.916 ± 0.163 | Cell Survival (IEC-6/TRPV1+ cells [6]; 25 μM, incubation 12 h): 0.896 ± 0.199 | Cell Survival (IEC-6/TRPV1+ cells [6]; 25 μM, incubation 24 h): 0.822 ± 0.102 | Cell Survival (IEC-6/TRPV1+ cells [6]; 50 μM, incubation 12 h): 0.820 ± 0.201 | Cell Survival (IEC-6/TRPV1+ cells [6]; 50 μM, incubation 24 h): 0.739 ± 0.012 | concentration up to which more than 80% of the cells were viable (IEC-6/TRPV1+ cells [6]; both IEC-6/TRPV1+ and IEC-6/TRPV1-, incubated 24 h): 25 µM | Cell Survival (IEC-6/TRPV1- cells [7]; 12.5 μM, incubation 12 h): 0.969 ± 0.310 | Cell Survival (IEC-6/TRPV1- cells [7]; 12.5 μM, incubation 24 h): 0.934 ± 0.111 | Cell Survival (IEC-6/TRPV1- cells [7]; 25 μM, incubation 12 h): 0.851 ± 0.216 | Cell Survival (IEC-6/TRPV1- cells [7]; 25 μM, incubation 24 h): 0.878 ± 0.096 | Cell Survival (IEC-6/TRPV1- cells [7]; 50 μM, incubation 12 h): 0.792 ± 0.316 | Cell Survival (IEC-6/TRPV1- cells [7]; 50 μM, incubation 24 h): 0.801 ± 0.171 | AUC(0-t) (in vivo): 230 ng·h/mL | Cmax (in vivo): 52.2 ± 8.92 ng/mL | Tmax (in vivo; Tmax of CAP): 3.9 h | Tmax (in vivo; peak time (Tmax) of CAP): ~4 h
